Experimental data reported in patent US9096650B2, “Cyclic oligopeptides for binding to a target ligand” (LEXCICON LIMITED, priority 2006, dated 2015).
[ ]: non-standard residue; d: D form. Gly(decyl) = CCCCCCCCCC[C@H](N)C(=O)O

What was measured:
[1] = test system: J774A.1 cells (a macrophage cell line); test: Suppression of LPS-stimulated TNF secretion by cyclic analogues of Copaxone (Example 6); type: cell-based; details: for TNF concentration: peptide 12.5 ug/ml as cyclodextrin complex, LPS 0.1 ug/ml, medium + LPS 637.6
Protocol: • 1. Two cyclic oligopeptides were prepared with the following structures: cyclo(-A-K-Σ-Y-E-K-A-Σ-E-Y-) cyclo(-A-K-Σ-E-Y-K-A-Σ-Y-E-) • All amino acids are in the L form unless indicated otherwise. • All amino acids are linked by peptide bonds. • A, K, Y and E represent the epitope-forming amino acids and Σ represents the associating functional group borne on the associating amino acid wherein the associating amino acid is an L-alpha aminocarboxylic acid and the associating functional group is a side-chain residue consisting of a straight aliphatic chain containing ten carbon atoms. • The cyclic oligopeptides were prepared as solutions in hexafluoro-isopropanol (HFIP) at a concentration of 10 mg/ml, then mixed with equal volumes of HFIP solution containing beta-hydroxypropyl cyclodextrin at a concentration of 50 mg/ml. The organic solutions were then dried down under nitrogen, and the peptide/cyclodextrin complex redissolved in distilled water to give a final concentration of cyclic oligopeptide of 1 mg/ml. • 2. J774A.1 cells (a macrophage cell line) were plated out in all the wells of a 24-well cluster plate at a seeding density of 3×10^5 cells/ml/well (1 ml RPMI 1640 culture medium per well), and incubated overnight at 37° C. in 5% CO2/air. • 3. The following day, the solutions from step 1 were administered to wells containing cells in step 2, to give three wells each with a final concentration of 12.5 ug/ml of peptide. Additional wells containing cyclodextrin alone at 62.5 ug/ml were also prepared. The remaining wells were left untreated. The plate was incubated for a further four hours at 37 degC. • 4. Lipopolysaccharide (from E. coli strain 0111 B4) was added to the wells receiving the cyclic oligopeptide solution, as well as three of the wells receiving no peptide. The final concentration of lipopolysaccharide was 0.1 ug/ml. • 5. The plate was incubated overnight, and the following day the supernatants were assayed for TNF using a commercial ELISA kit.

[2] = test system: J774A.1 cells (a macrophage cell line); type: cell-based; details: peptide 12.5 ug/ml; CTB 10 ug/ml; CTB alone 690.8, medium control 67.5
thrombin = thrombin (Homo sapiens, UniProt P00734); test: Inhibition of enzyme activity of thrombin, fluorogenic substrate (Example 7); type: biochemical
Protocol: 1. Cyclic oligopeptides of the following structures were synthesised as previously described, and prepared in complexed form with cyclodextrin at concentration of 1 mg/ml on Hanks Balanced Salts Solution using the procedure outlined in example 6. (i) cyclo(-R-E-Σ-S-R-E-R-Σ-S-E-) (ii) cyclo(-A-K-ΣE-Y-K-A-ΣY-E-) (iii) cyclo(-dF-R-C-S-dF-R-C-S-) (iv) cyclo(-dF-S-C-R-dF-S-C-R-)
2. In wells of a […] microplate, 20 ul of thrombin solution (0.01 mg/ml) were dispensed, and mixed with 60 ul of cyclic oligopeptide solution
3. 20 ul of the substrate boc-beta-benzyl-Asp-Pro-Arg-7-amido-4-methylcoumarin hydrochloride (0.01 mg/ml) was added to each well, and the time course of generation of […] was measured.

[3] = test system: J774A.1 cells (a macrophage cell line); test: Suppression of LPS-stimulated TNF secretion by cyclic oligopeptides containing two different epitopes (Example 8); type: cell-based; details: LPS 0.1 ug/ml
Protocol: • 1. Two cyclic oligopeptides were prepared with the following structures: (i) cyclo(-dF-S-Σ-Q-dL-S-Σ-R-) • and (ii) cyclo(-dF-S-Σ-L-dQ-S-Σ-R) • All amino acids are in the L form unless indicated otherwise. • All amino acids are linked by peptide bonds. wherein Q, L, S, R and F represent the epitope-forming amino acids and Σ represents the associating functional group borne on the associating amino acid wherein the associating amino acid is an L-alpha aminocarboxylic acid and the associating functional group is a side-chain residue consisting of a straight aliphatic chain containing ten carbon atoms.
These cyclic oligopeptides were prepared as solutions in transcutol/cyclodextrin, as described in example 4, to give a final concentration of peptide of 1 mg/ml, and cyclodextrin at 20 mg/ml. • 2. J774A.1 cells (a macrophage cell line) were plated out in all the wells of three 24-well cluster plates at a seeding density of 3×10^5 cells/ml/well (1 ml RPMI 1640 culture medium per well), and incubated overnight at 37° C. in 5% CO2/air. • 3. The following day, the solutions from step 1 were administered to wells containing cells in step 2, to give three wells each with a final concentration of 50, 25, 12.5, 6.25 or 3.125 ug/ml of cyclic oligopeptide. Additional wells containing cyclodextrin at 1, 0.5, 0.25, 0.125 and 0.0625 mg/ml were also prepared. The remaining wells were left untreated. The plate was incubated for a further four hours at 37 degC. • 4. Lipopolysaccharide (from E. coli strain 0111 B4) was added to the wells receiving the octapeptide solution, as well as three of the wells receiving no peptide. The final concentration of lipopolysaccharide was 0.1 ug/ml. • 5. The plate was incubated overnight, and the following day the supernatants were assayed for TNF using a commercial ELISA kit.

Q: “cyclo(-A-K-Σ-E-Y-K-A-Σ-Y-E-) (cyclo(AK[Gly(decyl)]EYKA[Gly(decyl)]YE); SMILES CCCCCCCCCC[C@@H]1NC(=O)[C@H](C)NC(=O)[C@H](CCCCN)NC(=O)[C@H](Cc2ccc(O)cc2)NC(=O)[C@H](CCC(=O)O)NC(=O)[C@H](CCCCCCCCCC)NC(=O)[C@H](CCCCN)NC(=O)[C@H](C)NC(=O)[C@H](CCC(=O)O)NC(=O)[C@H](Cc2ccc(O)cc2)NC1=O) [cyclo(-A-K-Σ-E-Y-K-A-Σ-Y-E), cyclic analogue of Copaxone; Σ = L-alpha aminocarboxylic acid with straight C10 side chain]” was tested. Which TNF concentration [1] did it give?
A: 928.8 pg/mL

Q: With “cyclo(-A-K-Σ-Y-E-K-A-Σ-E-Y-) [cyclo(-A-K-Σ-Y-E-K-A-Σ-E-Y)]” as the substance, how does the “effect on TNF secretion by macrophages compared with Copaxone” value ([1]; in words) read?
A: displays the same effect on TNF secretion by macrophages

Q: And the TNF concentration [1]?
A: 486.9 pg/mL

Q: For cyclo(-DF-R-Σ4-S-DF-R-Σ4-S-), which “Concentration of TNF” value [2] is on record?
A: 664.4 pg/mL

Q: With cyclo(-DF-R-Σ10-S-DF-R-Σ10-S-) as the substance, how does the “Concentration of TNF” value [2] read?
A: 268.5 pg/mL

Q: How did the “Concentration of TNF” value [2] turn out when cyclo(-DF-S-Σ4-R-DF-S-Σ4-R-) was run?
A: 621.1 pg/mL

Q: For cyclo(-DF-S-Σ10-R-DF-S-Σ10-R-), which “Concentration of TNF” value [2] is on record?
A: 85.7 pg/mL

Q: With “cyclo(-dF-S-Σ-L-dQ-S-Σ-R) [Example 8 (ii)]” as the substance, how does the “Thrombin proteolytic activity (Fluorescence Units - Arbitrary Units)” value (“Thrombin proteolytic activity” below) (thrombin; time 2.0 minutes, enzyme alone 770.9, lower = more inhibition) read?
A: 410.8 Arbitrary Units

Q: And the “Thrombin proteolytic activity” value (thrombin; time 5.0 minutes, enzyme alone 1821.1)?
A: 816.4 Arbitrary Units

Q: And the “Thrombin proteolytic activity” value (thrombin; time 10.0 minutes, enzyme alone 2163.5)?
A: 1189.4 Arbitrary Units

Q: And the “Thrombin proteolytic activity” value (thrombin; time 15.0 minutes, enzyme alone 2253.2)?
A: 1398.6 Arbitrary Units

Q: And the “Thrombin proteolytic activity” value (thrombin; time 20.0 minutes, enzyme alone 2345.8)?
A: 1592.1 Arbitrary Units

Q: What about the “Thrombin proteolytic activity” value (thrombin; time 25.0 minutes, enzyme alone 2359.0) of the same substance?
A: 1673.2 Arbitrary Units

Q: What about the TNF concentration ([3]; peptide 3.125 ug/ml, 2856 = maximum detectable limit) of the same substance?
A: 2648 ± 43 pg/mL

Q: What about the TNF concentration ([3]; peptide 6.25 ug/ml) of the same substance?
A: 2325 ± 67 pg/mL

Q: And the TNF concentration ([3]; peptide 12.5 ug/ml)?
A: 1748 ± 20 pg/mL

Q: What about the TNF concentration ([3]; peptide 25 ug/ml) of the same substance?
A: 1437 ± 85 pg/mL

Q: And the TNF concentration ([3]; peptide 50 ug/ml)?
A: 1081 ± 142 pg/mL
